According to patent US11253497B2, “Use of derivatives of polyunsaturated fatty acids as medicaments” (Lipopharma Therapeutics, S.L., priority 2009, dated 2022):

Columns and labels:
P19 cells = experiment: NMDA-induced neuronal death in P19 cells; format: cell-based; conditions: for Neuronal death (P19 cells) after treatment with NMDA: NMDA alone 100% death, control without NMDA 0%, negative values = proliferation
[1] = system: apolipoprotein AI (apoA-I); experiment: Levels of apoA-I in SHR rats (RT-PCR); format: in vivo, rat; conditions: 200 mg/kg day p.o., 30 days, before treatment 100%
Outline: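 SHR rats dosed orally at 200 mg/kg day for 30 days against water vehicle. At study end, blood pressure taken non-invasively by tail cuff and apoA-I assessed as gene expression by RT-PCR.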

Alzh mice = experiment: Radial maze in animal model of Alzheimer's disease (Alzh mice); format: in vivo; conditions: animals with Alzheimer's disease, 20 mg/kg daily po, 3 months
Text: On the vertical axis it is represented the neuronal death (% of control) depending on the fatty acid used (x-axis). The presence of PUFAs induced modest increases in the survival of P19 cells in the presence of NMDA. D-PUFAs induced significant increases in cell survival values, exceeding in more than 200% in the case of 226A1. Since the number of cells in cultures treated cells is higher than in control cells, it may be affirmed that these compounds not only prevent neuronal death induced by NMDA (anti-neurodegenerative) but also are neuroregenerative agents. […] In the Y axis of the left figure it is shown the time taken to complete the exercise and in the vertical Y axis of the right figure the total number of errors made in the implementation of programmed exercise (mean standard error of the mean) (runtime). In both figures, from left to right, it is represented in the X axis the results in healthy mice (control) (first column), in mice with induced Alzheimer and treated with water as vehicle (second column) or in mice treated with the compound 226B1 (third column). Animals with Alzheimer's disease took longer and made more errors than healthy mice, being the differences statistically significant (*, P<0.05).
To test the efficacy of the compounds of the present invention to induce neuroregeneration or inhibit neurodegeneration, an animal model of Alzheimer's disease was used. In this model mice develop neurodegeneration because they express a series of mutant proteins that lead to brain damage (Alzh mice). B6 mice were used as healthy animal controls. Both groups of animals were treated for a period of 3 months with vehicle (water) or with various D-PUFA (20 mg/kg, daily po) since they were an age of 3 months. To determine whether cognitive improvement occurred after treatment, animal behaviour was monitored in the radial maze. The animals are kept on restricted diet to have appetite. In a symmetrical 8-arm radial maze, visual marks were placed to facilitate the orientation of the animal and food (15 mg tablet) was put in four of the arms. The time each animal took to complete the exercise, and the number of errors, were measured using a camera attached to a computer system. In this sense, Alzheimer animals have values about 50% higher than healthy animals, both by the time it takes to perform the exercise and by the number of errors made (FIG. 4B). […] In this regard, the effectiveness of the compound 183B1, 205A1, 205B1, 226A1, 226 V1 was also tested, showing improvements in animals with Alzheimer's disease (times of 98, 92, 93, 86 and 89 seconds, respectively). […]

B6 healthy mice = experiment: Radial maze in control animals (B6 healthy mice); format: in vivo; conditions: 20 mg/kg daily po, 3 months
Description: To test the efficacy of the compounds of the present invention to induce neuroregeneration or inhibit neurodegeneration, an animal model of Alzheimer's disease was used. In this model mice develop neurodegeneration because they express a series of mutant proteins that lead to brain damage (Alzh mice). B6 mice were used as healthy animal controls. Both groups of animals were treated for a period of 3 months with vehicle (water) or with various D-PUFA (20 mg/kg, daily po) since they were an age of 3 months. To determine whether cognitive improvement occurred after treatment, animal behaviour was monitored in the radial maze. The animals are kept on restricted diet to have appetite. In a symmetrical 8-arm radial maze, visual marks were placed to facilitate the orientation of the animal and food (15 mg tablet) was put in four of the arms. The time each animal took to complete the exercise, and the number of errors, were measured using a camera attached to a computer system. In this sense, Alzheimer animals have values about 50% higher than healthy animals, both by the time it takes to perform the exercise and by the number of errors made (FIG. 4B). […] In this regard, the effectiveness of the compound 183B1, 205A1, 205B1, 226A1, 226 V1 was also tested, showing improvements in animals with Alzheimer's disease (times of 98, 92, 93, 86 and 89 seconds, respectively). On the other hand, it is also interesting that these same compounds (183B1, 205A1, 205B1, 226A1, 226B1 and 226V1) also produced reductions in the times taken to complete the experiment in control animals (B6 healthy mice) of 8s, 11s, 12s, 18s, 16s and 14s, respectively. Therefore, it may be concluded that these compounds have significant activity against neurodegeneration and in neuroregeneration.

α-synuclein = experiment: Expression of α-synuclein in neuronal cultures (cells P19); format: cell-based; conditions: untreated cells 100%
[2] = system: heterotrimeric Gi1 protein; experiment: Binding of heterotrimeric Gi1 protein to model membranes (centrifugation, immunoblotting); conditions: phosphatidylcholine:phosphatidylethanolamine (6:4) 2 mM phospholipid, 0.1 μM D-PUFA; control 100 ± 5; in % (unit assumed)
Text: The net result is a regulation of cell signalling leading to the reversal of various pathological processes, as shown later. […] The Control is a sample of model membranes in the absence of fatty acids.

3T3 cells = experiment: Percentage of total PUFAs in membranes of 3T3 cells treated with fatty acids (gas chromatography); format: cell-based; conditions: 100 μM, 48 hours, mean ± SEM of four measures, control 32.4 ± 2.1
Text: To perform these experiments, membranes were extracted and total fatty acids were obtained by hydrolysis in basic medium. Methanolic bases of these fatty acids were quantified by gas chromatography. The data shown are averages of four independent measures of PUFA's mass divided by the total fatty acids and expressed as a percentage. It is also shown is standard error of the mean.
The control corresponds to a culture without the presence of added natural or synthetic fatty acids. Cells in their natural form present PUFAs in their membranes, but the presence in the medium of the D-PUFA molecules of the invention increases these levels of PUFAs in the cell membrane.

HepG2 cells = experiment: Liver cancer (HepG2 cells); format: cell-based; conditions: 72 hours
Description: These charts show the antitumor efficacy of the compounds of this invention against the growth of breast cancer cells, brain (glioma), and lung cancer. […] The other experimental conditions are identical to those described in the preceding paragraph.
Overall, it may be seen that the series of compounds A and B are the best, so the effectiveness of these series against the development of leukaemia and liver cancer (Tables 9 and 10) was tested.

| SMILES | Neuronal death (P19 cells) after treatment with NMDA (P19 cells) [%] | Levels of apoA-I [1] [%] | Time to complete the radial maze exercise (Alzh mice) [s] | Reduction in the time taken to complete the experiment (B6 healthy mice) [s] | Expression of α-synuclein (α-synuclein) [%] | G protein binding [2] | Percentage of total PUFA (3T3 cells) [%] | IC50 (HepG2 cells; Homo sapiens, HepG2) [µM] | Increase in cell survival in the presence of NMDA (FIG. 4A) (P19 cells; P19 cells) | IC50 (HepG2 cells) [µM] |
| --- | --- | --- | --- | --- | --- | --- | --- | --- | --- | --- |
| CCC=CCC=CCC=CCCCCCCC(O)C(=O)[O-].[Na+] (stereo not drawn) [183B1] | −58 | 151 | 98 | 8 | 43 |  |  |  |  |  |
| CCC=CCC=CCC=CCC=CCC=CCCC(O)C(=O)O (stereo not drawn) [205A1, 2-hydroxy-5,8,11,14,17-eicosapentaenoic acid] | −50 | 346 | 92 | 11 | 35 | 406 ± 14 | 46.7 ± 3.4 | 401 |  |  |
| CCC=CCC=CCC=CCC=CCC=CCCC(O)C(=O)[O-].[Na+] (stereo not drawn) [205B1] | −52 | 264 | 93 | 12 | 41 |  |  |  |  |  |
| CCC=CCC=CCC=CCC=CCC=CCC=CCC(O)C(=O)O (stereo not drawn) [226A1] | −230 | 324 | 86 | 18 | 23 | 422 ± 26 | 48.9 ± 3.7 |  | more than 200% | 164 |
